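How tested: cells in 96-well plates exposed to compound for 48 hours at five concentrations. Abbreviation: GI50, concentration required for 50% inhibition of growth. Definition used: TGI = concentration required for complete inhibition of growth.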
Assays:
Assay in all cases: NCI anticancer screen, dose series, 48 h
[1] = test system: HCC-2998 colon
[2] = test system: SK-MEL-28 melanoma
[3] = test system: UO-31 renal
[4] = test system: CAKI-1 renal
[5] = test system: 786-0 renal
[6] = test system: KM12 colon
[7] = test system: HOP-62 NSCLC
[8] = test system: RPMI-8226 leukemia
[9] = test system: UACC-257 melanoma
[10] = test system: EKVX NSCLC
[11] = test system: OVCAR-4 ovarian
[12] = test system: SNB-19 CNS
[13] = test system: A549 NSCLC
[14] = test system: HS 578T breast
[15] = test system: SF-539 CNS
[16] = test system: NCI-H226 lung
[17] = test system: DU-145 prostate
[18] = test system: K-562 leukemia
[19] = test system: OVCAR-8 ovarian
[20] = test system: SK-MEL-2 melanoma
[21] = test system: HCT-116 colon
[22] = test system: UACC-62 melanoma
[23] = test system: SN12C renal
[24] = test system: CCRF-CEM leukemia
[25] = test system: MALME-3M melanoma
[26] = test system: SK-OV-3 ovarian
[27] = test system: IGROV1 ovarian
[28] = test system: HL-60(TB) leukemia
[29] = test system: HOP-92 NSCLC
[30] = test system: SR leukemia
[31] = test system: MOLT-4 leukemia
[32] = test system: NCI/ADR-RES ovarian
[33] = test system: NCI-H522 lung
[34] = test system: SK-MEL-5 melanoma
[35] = test system: U251 CNS
[36] = test system: M14 melanoma
[37] = test system: OVCAR-3 ovarian
[38] = test system: TK-10 renal
[39] = test system: SNB-75 CNS
[40] = test system: LOX IMVI melanoma
[41] = test system: SW-620 colon
[42] = test system: PC-3 prostate
[43] = test system: BT-549 breast
[44] = test system: HT29 colon
[45] = test system: T-47D breast
[46] = test system: MDA-MB-231 breast
[47] = test system: OVCAR-5 ovarian
[48] = test system: NCI-H23 lung
[49] = test system: ACHN renal
[50] = test system: COLO 205 colon
[51] = test system: MCF7 breast
[52] = test system: MDA-MB-435
[53] = test system: RXF 393 renal
[54] = test system: HCT-15 colon
[55] = test system: NCI-H460 lung
[56] = test system: SF-268 CNS
[57] = test system: SF-295 CNS

For CC[C@H](C)[C@H](NC(=O)c1ccccn1)C(=O)N(C)[C@H](C[C@@H](OC(C)=O)c1nc(C(=O)N[C@@H](Cc2ccccc2)C[C@H](C)C(=O)OC)cs1)C(C)C, the GI50 [1] was 19.1 µM, the TGI [1] was > 100 µM and the GI50 [2] was 35.1 µM. For the same compound, the TGI [2] was > 100 µM, the GI50 [3] was 18 µM and the TGI [3] was > 100 µM. For the same compound, the GI50 [4] was 30.6 µM, the TGI [4] was > 100 µM and the GI50 [5] was 16.1 µM. For the same compound, the TGI [5] was 59.7 µM, the GI50 [6] was 8.08 µM and the TGI [6] was > 100 µM. The GI50 [7] was 26.1 µM, the TGI [7] was > 100 µM and the GI50 [8] was 6.98 µM. The TGI [8] was > 100 µM, the GI50 [9] was 36.8 µM and the TGI [9] was > 100 µM. The GI50 [10] was 35.3 µM, the TGI [10] was > 100 µM and the GI50 [11] was 31.1 µM. The TGI [11] was > 100 µM, the GI50 [12] was 33.8 µM and the TGI [12] was > 100 µM. The GI50 [13] was 48.9 µM, the TGI [13] was > 100 µM and the GI50 [14] was 12.8 µM. The TGI [14] was 45.7 µM, the GI50 [15] was 17.1 µM and the TGI [15] was 50.8 µM. The GI50 [16] was 45 µM, the TGI [16] was > 100 µM and the GI50 [17] was 34.7 µM. The TGI [17] was > 100 µM, the GI50 [18] was 17.5 µM and the TGI [18] was > 100 µM. The GI50 [19] was 33.3 µM, the TGI [19] was > 100 µM and the GI50 [20] was 12.8 µM. The TGI [20] was > 100 µM, the GI50 [21] was 11.2 µM and the TGI [21] was 50.3 µM. For the same compound, the GI50 [22] was 4.56 µM, the TGI [22] was > 100 µM and the GI50 [23] was 30 µM. For the same compound, the TGI [23] was > 100 µM, the GI50 [24] was 21.5 µM and the TGI [24] was > 100 µM. For the same compound, the GI50 [25] was 15.7 µM, the TGI [25] was > 100 µM and the GI50 [26] was 33.4 µM. The TGI [26] was > 100 µM, the GI50 [27] was 11.6 µM and the TGI [27] was > 100 µM. For the same compound, the GI50 [28] was 7.89 µM, the TGI [28] was 54 µM and the GI50 [29] was 6.88 µM. For the same compound, the TGI [29] was 80.9 µM, the GI50 [30] was 3.88 µM and the TGI [30] was 81 µM. For the same compound, the GI50 [31] was 24.7 µM, the TGI [31] was 90.2 µM and the GI50 [32] was 25.3 µM. The TGI [32] was > 100 µM, the GI50 [33] was 8.93 µM and the TGI [33] was 38.9 µM. For the same compound, the GI50 [34] was 10.7 µM, the TGI [34] was 42.5 µM and the GI50 [35] was 28.5 µM. The TGI [35] was > 100 µM, the GI50 [36] was 9.25 µM and the TGI [36] was 38.4 µM. For the same compound, the GI50 [37] was 10.9 µM, the TGI [37] was 40.7 µM and the GI50 [38] was 54.1 µM. The TGI [38] was > 100 µM, the GI50 [39] was 5.73 µM and the TGI [39] was 98 µM. For the same compound, the GI50 [40] was 22.3 µM, the TGI [40] was > 100 µM and the GI50 [41] was 23.1 µM. For the same compound, the TGI [41] was > 100 µM, the GI50 [42] was 23.6 µM and the TGI [42] was > 100 µM. For the same compound, the GI50 [43] was 11.4 µM, the TGI [43] was 42.5 µM and the GI50 [44] was 26.3 µM. The TGI [44] was > 100 µM, the GI50 [45] was 43 µM and the TGI [45] was > 100 µM. For the same compound, the GI50 [46] was 15.7 µM, the TGI [46] was 48.2 µM and the GI50 [47] was 27.9 µM. For the same compound, the TGI [47] was > 100 µM, the GI50 [48] was 24.6 µM and the TGI [48] was > 100 µM. For the same compound, the GI50 [49] was 27.3 µM, the TGI [49] was > 100 µM and the GI50 [50] was 16.8 µM. For the same compound, the TGI [50] was 42 µM, the GI50 [51] was 4.92 µM and the TGI [51] was > 100 µM. It also gave a GI50 [52] of 2.08 µM, a TGI [52] of 5.64 µM and a GI50 [53] of 7.56 µM. The TGI [53] was 60.4 µM, the GI50 [54] was 21.7 µM and the TGI [54] was > 100 µM. For the same compound, the GI50 [55] was 18.6 µM, the TGI [55] was 57 µM and the GI50 [56] was 29 µM. For the same compound, the TGI [56] was > 100 µM, the GI50 [57] was 21.7 µM and the TGI [57] was > 100 µM.

From PubChem BioAssay (NCI)
